# Measured values reported in publication PMC9469095, “Toolkit of Approaches To Support Target-Focused Drug Discovery for Plasmodium falciparum Lysyl tRNA Synthetase” (ACS Infectious Diseases, 2022).
# Assays:
# [1] = biological target: T1, PfKRS (cytosolic lysyl tRNA synthetase) (Plasmodium falciparum, UniProt Q8IDJ8); experiment: biochemical; set-up: PfKRS lysine activation, pyrophosphate release with BIOMOL Green absorbance at 650 nm; details: read-out: PfKRS pIC50 (converted)
# T1 construct: gene PF3D7_1350100
# Protocol: (§1) PfKRS assay wells contained PfKRS assay buffer (100 mM Hepes; pH 7.4, 100 mM NaCl, 20 mM MgCl2, 0.01% (v/v) Igepal and 1 mM DTT) plus 20 nM PfKRS, 200 μM ATP, 400 μM L-lysine, and 0.5 U/mL pyrophosphatase. HsKRS reactions contained HsKRS assay buffer (30 mM Tris; pH 8, 140 mM NaCl, 40 mM MgCl2, 30 mM KCl, 0.01% (v/v) Brij and 1 mM DTT) plus 400 nM HsKRS, 3.5 μM ATP, 6 μM L-lysine, and 0.5 U/mL pyrophosphatase. Assays were performed by adding 25 μL of assay buffer with enzyme to all assay wells, before the reaction was initiated with the addition of a 25 μL substrate mixture containing L-lysine, ATP, and pyrophosphatase (a substrate mix with L-lysine omitted was added to “no lysine” control wells on each assay plate). Following a 6 h (PfKRS) or 3 h (HsKRS) reaction at RT, the assay was stopped with the addition of 50 μL BIOMOL Green. The BIOMOL Green signal was allowed to develop for 30 min before the absorbance of each well was read at 650 nm using an EnVision multilabel plate reader (PerkinElmer Life Sciences) or a PheraStar plate reader (BMG). All [compound left out] dispensing steps were carried out using a Thermo Scientific WellMate dispenser (Matrix). To generate pIC50 data for hit compounds in the PfKRS or HsKRS assays, 10-point inhibitor dose–response curves were prepared in 384-well assay plates using an ECHO 550 acoustic dispenser (Labcyte). Following preparation of the inhibitor curves, assays were carried out as described above. ActivityBase from IDBS (version 8.0.5.4) was used for data processing and analysis, with percentage inhibition values determined relative to 100% inhibition (“no-lysine” control) and 0% inhibition control wells on each plate. All IC50 curve fitting was undertaken using ActivityBase XE (version 7.7.1) from IDBS. A four-parameter logistic dose–response curve was utilized (XLfit model 203) with prefit used for all four parameters.
# Target sequence in this assay (Q8IDJ8 1-583): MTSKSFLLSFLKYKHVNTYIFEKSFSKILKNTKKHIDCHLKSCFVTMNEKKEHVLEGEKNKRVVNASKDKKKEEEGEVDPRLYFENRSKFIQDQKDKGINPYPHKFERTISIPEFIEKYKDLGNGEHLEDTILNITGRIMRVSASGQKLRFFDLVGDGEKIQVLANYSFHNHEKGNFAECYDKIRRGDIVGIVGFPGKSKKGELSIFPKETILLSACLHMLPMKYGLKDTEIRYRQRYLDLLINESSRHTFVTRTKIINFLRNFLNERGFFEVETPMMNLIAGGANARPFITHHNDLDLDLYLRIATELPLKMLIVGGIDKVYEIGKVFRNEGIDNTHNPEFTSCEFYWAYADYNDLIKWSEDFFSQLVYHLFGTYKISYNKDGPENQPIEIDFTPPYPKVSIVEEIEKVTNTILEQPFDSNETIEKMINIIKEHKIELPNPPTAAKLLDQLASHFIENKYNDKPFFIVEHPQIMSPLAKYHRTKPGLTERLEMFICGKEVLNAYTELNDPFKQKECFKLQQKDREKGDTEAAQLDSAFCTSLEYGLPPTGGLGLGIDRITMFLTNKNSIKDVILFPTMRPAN
# [2] = biological target: T1, PfKRS (cytosolic lysyl tRNA synthetase); experiment: isothermal thermal proteome profiling at […] °C in P. falciparum lysate; format: cell-based
# Target sequence in this assay (Q8IDJ8 entry or part of it): as the sequence (Q8IDJ8 1-583) above
# HsKRS = biological target: T2, HsKRS (Homo sapiens, UniProt Q15046); experiment: biochemical; set-up: HsKRS lysine activation, pyrophosphate release with BIOMOL Green absorbance at 650 nm; details: read-out: HsKRS pIC50 (converted)
# T2 construct: gene KARS1
# T2 sequence (Q15046 whole entry): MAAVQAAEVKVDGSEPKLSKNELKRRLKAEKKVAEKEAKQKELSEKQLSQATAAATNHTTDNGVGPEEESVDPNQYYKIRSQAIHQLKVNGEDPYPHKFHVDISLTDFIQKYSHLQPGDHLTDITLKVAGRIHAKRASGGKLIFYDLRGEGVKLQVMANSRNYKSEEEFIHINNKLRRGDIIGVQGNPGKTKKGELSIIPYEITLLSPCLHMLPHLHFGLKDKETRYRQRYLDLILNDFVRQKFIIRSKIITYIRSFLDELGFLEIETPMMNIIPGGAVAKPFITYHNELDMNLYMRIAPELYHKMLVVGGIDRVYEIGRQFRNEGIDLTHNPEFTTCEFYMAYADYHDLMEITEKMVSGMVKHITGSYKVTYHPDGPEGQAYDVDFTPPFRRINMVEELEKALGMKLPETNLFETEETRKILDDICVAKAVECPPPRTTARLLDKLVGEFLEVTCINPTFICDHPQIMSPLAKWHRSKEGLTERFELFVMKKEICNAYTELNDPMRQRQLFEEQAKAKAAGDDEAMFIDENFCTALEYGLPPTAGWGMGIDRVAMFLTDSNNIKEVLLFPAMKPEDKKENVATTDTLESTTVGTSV
# Protocol: as §1
Structure (SMILES),IC50 [1],isothermal thermal proteome profiling at 57 °C in P. falciparum lysate [2],IC50 (HsKRS)
C[C@H]1CCC[C@H](C[C@H]2Cc3cc(O)cc(O)c3C(=O)O2)O1 [cladosporin],47.9 nM,The relative abundance of PfKRS was also significantly increased in lysates exposed to cladosporin,> 100000 nM
[N-]=[N+]=NCCOCCOCCOCCNC(=O)c1ccc(S(=O)(=O)Nc2cc(F)cc3c(=O)cc(C(=O)NCC4CCCCC4)oc23)cc1 [linker 1],22.4 nM,–,43700 nM
O=C(NCC1(O)CCC(F)(F)CC1)c1cc(=O)c2cc(F)ccc2o1 [DDD01510706],240 nM,–,20000 nM
O=C(NCC1CCCCC1)c1cc(=O)c2cc(F)cc(NS(=O)(=O)c3ccccc3)c2o1 [DDD02354914],11.7 nM,–,6310 nM
